Measured values from patent publication US20230104936A1, “TRPML MODULATORS” (Casma Therapeutics, Inc., priority 2019, published 2023).

Tested on: TFEB
Assay: TFEB nuclear translocation assay, HeLa wt cells
Format: cell-based
Conditions: 2 hrs compound treatment, Table 1 does not say HeLa wt or TRPML1 KO
Outline: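 Using 20× epifluorescence of fixed, anti-TFEB-stained HeLa wt cells treated 2 hrs with compound, nuclear versus perinuclear ring intensity was quantified over four fields per well, yielding AC50 values.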

Row | SMILES | AC50 (Homo sapiens, HeLa, 2 h) [nM] | AC50 [nM]
1 | CNC1(c2ccc(Cl)cc2F)CCN(c2ccccc2NS(=O)(=O)c2ccc(S(=O)(=O)N(C)C)cc2)CC1 [Compound A-212, N4-{2-[4-(4-chloro-2-fluorophenyl)-4-(methylamino)piperidin-1-yl]phenyl}-N1,N1-dimethylbenzene-1,4-disulfonamide] | ≤ 2000 | –
2 | CC(c1cccc(F)c1N1CCC(CN2C3CCC2COC3)CC1)S(=O)(=O)c1ccc(S(C)(=O)=O)cc1 (centres unmarked) [Compound A-904, 8-[(1-{2-fluoro-6-[1-(4-methanesulfonylbenzenesulfonyl)ethyl]phenyl}piperidin-4-yl)methyl]-3-oxa-8-azabicyclo[3.2.1]octane] | 2010 to 8000 | –
3 | CC1(C)CC2(CCN(c3ccccc3NS(=O)(=O)c3ccc(OC(F)F)c(F)c3)CC2)CO1 [Compound A-667, 4-(difluoromethoxy)-N-(2-{3,3-dimethyl-2-oxa-8-azaspiro[4.5]decan-8-yl}phenyl)-3-fluorobenzene-1-sulfonamide] | 2010 to 8000 | –
4 | CN(C)S(=O)(=O)c1ccc(S(=O)(=O)Nc2ccccc2N2CCC(COC(F)(F)CF)CC2)cc1 [Compound A-797, N1,N1-dimethyl-N4-(2-{4-[(1,1,2-trifluoroethoxy)methyl]piperidin-1-yl}phenyl)benzene-1,4-disulfonamide] | ≤ 2000 | –
5 | CN(C)S(=O)(=O)c1ccc(S(=O)(=O)Nc2ccccc2N2CCN(C(=O)C34CCCCC3C4)CC2)cc1 (centres unmarked) [Compound A-487, N4-[2-(4-{bicyclo[4.1.0]heptane-1-carbonyl}piperazin-1-yl)phenyl]-N1,N1-dimethylbenzene-1,4-disulfonamide] | ≤ 2000 | –
6 | COCC1(C)CCN(c2ccccc2NS(=O)(=O)c2ccc(CC(C)(C)C)cc2)CC1 [Compound A-489, 4-(2,2-dimethylpropyl)-N-{2-[4-(methoxymethyl)-4-methylpiperidin-1-yl]phenyl}benzene-1-sulfonamide] | 2010 to 8000 | –
7 | CN(C)S(=O)(=O)c1ccc(S(=O)(=O)Nc2ccccc2N2CCC(CNC(C)(C)C)CC2)cc1 [Compound A-415, N4-(2-{4-[(tert-butylamino)methyl]piperidin-1-yl}phenyl)-N1,N1-dimethylbenzene-1,4-disulfonamide] | ≤ 2000 | –
8 | CN1CCC2(CCN(c3ccccc3NS(=O)(=O)c3ccc(S(C)(=O)=O)cc3)CC2)c2ccccc21 [Compound A-492, 4-methanesulfonyl-N-(2-{1′-methyl-2′,3′-dihydro-1′H-spiro[piperidine-4,4′-quinolin]-1-yl}phenyl)benzene-1-sulfonamide] | ≤ 2000 | –
9 | CC(c1ccccc1N1CCN(C(=O)OCc2ccccc2)CC1)S(=O)(=O)c1ccc(S(=O)(=O)N(C)C)cc1 (centres unmarked) [Compound A-556, benzyl 4-(2-{1-[4-(dimethylsulfamoyl)benzenesulfonyl]ethyl}phenyl)piperazine-1-carboxylate] | ≤ 2000 | –
10 | CN(C)S(=O)(=O)c1ccc(S(=O)(=O)Nc2ccccc2N2CCC(C(=O)C(C)(C)C)CC2)cc1 [Compound A-470, N4-{2-[4-(2,2-dimethylpropanoyl)piperidin-1-yl]phenyl}-N1,N1-dimethylbenzene-1,4-disulfonamide] | ≤ 2000 | –
11 | CC(c1cccc(F)c1N1CCC(CN2C[C@@H](C)O[C@@H](C)C2)CC1)S(=O)(=O)c1ccc(S(=O)(=O)N(C)C)cc1 (stereo partly drawn) [Compound A-750, 4-{1-[2-(4-{[(2R,6S)-2,6-dimethylmorpholin-4-yl]methyl}piperidin-1-yl)-3-fluorophenyl]ethanesulfonyl}-N,N-dimethylbenzene-1-sulfonamide] | ≤ 2000 | –
12 | CC(c1cccc(F)c1N1CCCCC1)S(=O)(=O)c1ccc(S(=N)(=O)C(F)F)cc1 (single isomer, unassigned) [Compound A-937, (difluoromethyl)(4-((1-(3-fluoro-2-(piperidin-1-yl)phenyl)ethyl)sulfonyl)phenyl)(imino)-l6-sulfanone] | – | 2010 to 8000
13 | O=S(=O)(Nc1ccccc1N1CCC(c2ccc(Cl)cc2F)CC1)c1cccc(F)c1F [Compound A-97, N-{2-[4-(4-chloro-2-fluorophenyl)piperidin-1-yl]phenyl}-2,3-difluorobenzene-1-sulfonamide] | ≥ 10000 | –
14 | C[C@@H]1COC[C@@H](C)N1CC1CN(c2c(F)cccc2NS(=O)(=O)c2ccc(S(=O)(=O)N(C)C)cc2)C1 (stereo in doubt) [Compound A-915, rel-N4-[2-(3-{[(3R,5R)-3,5-dimethylmorpholin-4-yl]methyl}azetidin-1-yl)-3-fluorophenyl]-N1,N1-dimethylbenzene-1,4-disulfonamide] | ≥ 10000 | –
15 | Cc1nn(C)c(NS(=O)(=O)c2ccc(S(=O)(=O)N(C)C)cc2)c1C1CCN(c2ccc(Cl)cc2F)CC1 [Compound A-75, N1-(4-(1-(4-chloro-2-fluorophenyl)piperidin-4-yl)-1,3-dimethyl-1H-pyrazol-5-yl)-N4,N4-dimethylbenzene-1,4-disulfonamide] | ≥ 10000 | –
16 | Cc1ccc(S(=O)(=O)Nc2ccccc2N2CCC(c3ccc(Cl)cc3F)CC2)cc1 [Compound A-72, N-{2-[4-(4-chloro-2-fluorophenyl)piperidin-1-yl]phenyl}-4-methylbenzene-1-sulfonamide] | ≤ 2000 | –
17 | CC(N1CCN(c2ccccc2NS(=O)(=O)c2ccc(S(C)(=O)=O)cc2)CC1)C(F)(F)F (centres unmarked) [Compound A-540, 4-methanesulfonyl-N-{2-[4-(1,1,1-trifluoropropan-2-yl)piperazin-1-yl]phenyl}benzene-1-sulfonamide] | ≤ 2000 | –
18 | CN1CC2(CCN(c3ccccc3NS(=O)(=O)c3ccc(S(C)(=O)=O)cc3)CC2)c2ccc(F)cc21 [Compound A-251, N-(2-{6-fluoro-1-methyl-1,2-dihydrospiro[indole-3,4′-piperidin]-1′-yl}phenyl)-4-methanesulfonylbenzene-1-sulfonamide] | ≤ 2000 | –
19 | CS(=O)(=O)c1ccc(S(=O)(=O)Nc2ccccc2N2CCC3(CC2)CN(Cc2ccncc2)c2cc(F)ccc23)cc1 [Compound A-403, N-(2-{6-fluoro-1-[(pyridin-4-yl)methyl]-1,2-dihydrospiro[indole-3,4′-piperidin]-1′-yl}phenyl)-4-methanesulfonylbenzene-1-sulfonamide] | 2010 to 8000 | –
20 | COCC1(C)CCN(c2ccccc2NS(=O)(=O)c2ccc(C(C)(C)C(=O)OC)cc2)CC1 [Compound A-705, methyl 2-[4-({2-[4-(methoxymethyl)-4-methylpiperidin-1-yl]phenyl}sulfamoyl)phenyl]-2-methylpropanoate] | 8010 to 9990 | –
21 | CN(C)S(=O)(=O)c1ccc(C(Nc2ccccc2N2CCC(c3ccc(Cl)cc3F)CC2)C(F)(F)F)cc1 (centres unmarked) [Compound A-170, 4-[1-({2-[4-(4-chloro-2-fluorophenyl)piperidin-1-yl]phenyl}amino)-2,2,2-trifluoroethyl]-N,N-dimethylbenzene-1-sulfonamide] | ≤ 2000 | –
22 | CC(c1cccnc1N1CCC(CN2C[C@@H](C)O[C@@H](C)C2)CC1)S(=O)(=O)c1ccc(S(=O)(=O)N(C)C)cc1 (stereo partly drawn) [Compound A-879, 4-{1-[2-(4-{[(2R,6S)-2,6-dimethylmorpholin-4-yl]methyl}piperidin-1-yl)pyridin-3-yl]ethanesulfonyl}-N,N-dimethylbenzene-1-sulfonamide] | ≤ 2000 | –
23 | CN(C)S(=O)(=O)c1ccc([S+]([O-])Cc2ccccc2N2CCC(c3ccc(Cl)cc3F)CC2)cc1 (centres unmarked) [Compound A-190, 4-((2-(4-(4-chloro-2-fluorophenyl)piperidin-1-yl)benzyl)sulfinyl)-N,N-dimethylbenzenesulfonamide] | ≤ 2000 | –
